Data on 19 compounds can be found in patent publication US9062033B2, “Chemical compounds” (Rottapharm Biotech S.r.l., priority 2011, dated 2015).

The target of one experiment is T1, human OX1 receptors (Homo sapiens, UniProt O43613).
T1 construct: expressed in transfected cells; host or cells: CHO cells
T1 sequence (O43613 1-425): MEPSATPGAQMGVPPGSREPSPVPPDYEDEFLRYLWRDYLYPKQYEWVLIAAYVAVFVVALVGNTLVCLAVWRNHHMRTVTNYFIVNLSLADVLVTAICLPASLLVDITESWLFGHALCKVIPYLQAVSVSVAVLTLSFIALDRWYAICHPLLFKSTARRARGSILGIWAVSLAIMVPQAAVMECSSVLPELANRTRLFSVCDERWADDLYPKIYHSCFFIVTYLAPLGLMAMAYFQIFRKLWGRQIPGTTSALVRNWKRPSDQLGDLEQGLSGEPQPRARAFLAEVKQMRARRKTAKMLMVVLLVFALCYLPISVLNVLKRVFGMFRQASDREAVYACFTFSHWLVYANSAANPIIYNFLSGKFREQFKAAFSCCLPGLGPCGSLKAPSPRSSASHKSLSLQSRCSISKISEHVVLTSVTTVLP
Put plainly: Antagonistic activity against human OX1 receptor, [Ca2+]i fluorimetry (Fluo-4NW) in transfected CHO cells activated with orexin-A. It counts as cell-based. To be noted: for Kb: CHO cells transfected with human recombinant OX1, orexin-A 3 nM, pKb = co-logarithm of apparent dissociation constant, modified Cheng Prusoff. As for the experimental part: (§1) In a typical experiment, the antagonistic activity against human OX1 and OX2 receptors is determined by using CHO e HEK-293 cells transfected with human recombinant OX1 and OX2 receptors respectively, seeded at density of 2 and 3×10^4 cells/well respectively in a 96 fluorimetry well plate. Thus the plate was loaded with the calcium dye (Fluo-4NW/probenecid in HBSS, Hepes 20 mM, pH 7.4; Invitrogen) at 37° C. for 60 min. Afterward the temperature was equilibrated at 22° C. for 15 min and the [Ca2+]i measured directly on the plate by using a fluorescent plate reader (CellLux Perkin Elmer).
(§2) Invention compounds were dissolved in DMSO, diluted in HBSS (DMSO, 0.3% final) and added to the wells. After 5 min CHO cells were activated with orexin-A, 3 nM while HEK-293 cells were activated with orexin-B, 10 nM.
(§3) The compounds, dissolved in DMSO and diluted in the medium (DMSO, 0.3% final), have been analysed in the 1 nM-1 μM concentration range (every concentration in duplicate). The antagonistic activity has been expressed as pKb (co-logarithm of the apparent dissociation constant calculated by using the modified Cheng Prusoff equation).
(§4) The results are expressed as percent of control specific […] response ((measured specific response/control specific agonist response)×100) obtained in the presence of the test compounds.
(§5) The IC50 values (concentration causing a half-maximal inhibition of the control specific agonist response) were determinated by non-linear regression analysis of the concentration curves generated with mean replicate values using hill equation curve fitting. The IC50 values are obtained by the arithmetical mean of at least two experiments. Compounds of the following example tested according to this example gave pKbs as follows: […]

In a further experiment the target is T2, human OX2 receptors (Homo sapiens, UniProt O43614).
T2 construct: expressed in transfected cells; host or cells: HEK-293 cells
T2 sequence (O43614 1-444): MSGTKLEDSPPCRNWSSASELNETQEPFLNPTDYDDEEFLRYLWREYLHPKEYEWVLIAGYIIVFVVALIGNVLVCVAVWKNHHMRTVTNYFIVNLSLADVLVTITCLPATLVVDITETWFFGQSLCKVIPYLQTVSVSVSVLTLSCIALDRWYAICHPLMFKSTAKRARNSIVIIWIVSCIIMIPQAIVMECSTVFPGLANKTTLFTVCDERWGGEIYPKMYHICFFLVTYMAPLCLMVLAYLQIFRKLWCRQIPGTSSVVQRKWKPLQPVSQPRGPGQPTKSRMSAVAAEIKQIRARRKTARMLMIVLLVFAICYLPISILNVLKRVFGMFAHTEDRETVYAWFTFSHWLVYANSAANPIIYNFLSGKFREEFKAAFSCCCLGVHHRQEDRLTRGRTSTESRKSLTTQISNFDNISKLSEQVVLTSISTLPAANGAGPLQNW
Put plainly: Antagonistic activity against human OX2 receptor, [Ca2+]i fluorimetry (Fluo-4NW) in transfected HEK-293 cells activated with orexin-B. It counts as cell-based. The note with it: for Kb: HEK-293 cells transfected with human recombinant OX2, orexin-B 10 nM, pKb = co-logarithm of apparent dissociation constant, modified Cheng Prusoff. The protocol:
as §1, §2, §3, §4, §5

Where [1] appears, read: comparison table with compound of WO2011006960.

By Kb is commonly meant the equilibrium dissociation constant of an antagonist, usually derived from a functional assay. Take `Cc1ccc(-c2ncccn2)c(C(=O)N2CC3(CC3)C[C@H]2CNc2ncc(Cl)cc2F)n1` [Compound 3c, (S)-(6-(((5-chloro-3-fluoropyridin-2-yl)amino)methyl)-5-azaspiro[2.4]heptan-5-yl)(6-methyl-3-(pyrimidin-2-yl)pyridin-2-yl)methanone]: the Kb at human OX1 receptors was 6.31 nM; at human OX2 receptors, 39.8 nM.

With `Cc1nc(C(=O)N2CC3(CC3)C[C@H]2CNc2nc3ccc(F)cc3s2)c(-c2ccccc2)s1` [Compound 2h, (S)-(6-(((6-fluorobenzo[d]thiazol-2-yl)amino)methyl)-5-azaspiro[2.4]heptan-5-yl)(2-methyl-5-phenylthiazol-4-yl)methanone], the Kb on human OX1 receptors was 3.98 nM; on human OX2 receptors, 6.31 nM.

For `O=C(c1cccc2c1OC(F)(F)O2)N1CC2(CC2)C[C@H]1CNc1ccc(C(F)(F)F)cn1` [Compound 1b, (S)-(2,2-difluorobenzo[d][1,3]dioxol-4-yl)(6-(((5-(trifluoromethyl)pyridin-2-yl)amino)methyl)-5-azaspiro[2.4]heptan-5-yl)methanone], the antagonist equilibrium constant (Kb) is 79.4 nM on human OX1 receptors and 63.1 nM on human OX2 receptors.

`Cc1ccc(-c2ncccn2)c(C(=O)N2CC3(CC3)C[C@H]2CNc2ncc(C(F)(F)F)cn2)c1` [Compound 1s, (S)-(5-methyl-2-(pyrimidin-2-yl)phenyl)(6-(((5-(trifluoromethyl)pyrimidin-2-yl)amino)methyl)-5-azaspiro[2.4]heptan-5-yl)methanone]: the Kb on human OX1 receptors was 25.1 nM; on human OX2 receptors, 100 nM.

With `Cc1nc(C(=O)N2CC3(CC3)C[C@H]2CNc2cc(C(F)(F)F)ccn2)c(-c2ccccc2)s1` [Compound 2j, (S)-(2-methyl-5-phenylthiazol-4-yl)(6-(((4-(trifluoromethyl)pyridin-2-yl)amino)methyl)-5-azaspiro[2.4]heptan-5-yl)methanone], the values for the Kb on human OX1 receptors and at human OX2 receptors were 6.31 nM and 3.16 nM, respectively.

In the case of `Cc1ccc(-c2ccccc2)c(C(=O)N2CC3(CC3)C[C@H]2CNc2ccc(C(F)(F)F)cn2)n1` [Compound 3b, (S)-(6-methyl-3-phenylpyridin-2-yl)(6-(((5-(trifluoromethyl)pyridin-2-yl)amino)methyl)-5-azaspiro[2.4]heptan-5-yl)methanone], the Kb at human OX1 receptors is 2.51 nM; at human OX2 receptors, 10 nM.

With `CS(=O)(=O)c1ccc(-c2ccccc2)c(C(=O)N2CC3(CC3)C[C@H]2CNc2ccc(C(F)(F)F)cn2)c1` [Compound 1d, (S)-(4-(methylsulfonyl)-[1,1′-biphenyl]-2-yl)(6-(((5-(trifluoromethyl)pyridin-2-yl)amino)methyl)-5-azaspiro[2.4]heptan-5-yl)methanone], the results for the Kb at human OX1 receptors and on human OX2 receptors were 200 nM and 79.4 nM, respectively.

As for `O=C(c1cc(Cl)ccc1-c1ncccn1)N1CC2(CC2)C[C@H]1CNc1ncc(C(F)(F)F)cn1` [Compound 1u, (S)-(5-chloro-2-(pyrimidin-2-yl)phenyl)(6-(((5-(trifluoromethyl)pyrimidin-2-yl)amino)methyl)-5-azaspiro[2.4]heptan-5-yl)methanone], the figures for the Kb at human OX1 receptors and on human OX2 receptors were 15.8 nM and 200 nM, respectively.

With `Cc1ccc(-c2ncccn2)c(C(=O)N2CC3(CC3)C[C@H]2CNc2nc3ccccc3o2)n1` [Compound E9, (S)-(6-((benzo[d]oxazol-2-ylamino)methyl)-5-azaspiro[2.4]heptan-5-yl)(6-methyl-3-(pyrimidin-2-yl)pyridin-2-yl)methanone], the Kb at human OX1 receptors is 0.631 nM; on human OX2 receptors it was 25.1 nM.

In the case of `Cc1ccc(-c2ncccn2)c(C(=O)N2CC3(CC3)C[C@H]2CNc2cnc(C(F)(F)F)cn2)n1` [Compound 3h, (S)-(6-methyl-3-(pyrimidin-2-yl)pyridin-2-yl)(6-(((5-(trifluoromethyl)pyrazin-2-yl)amino)methyl)-5-azaspiro[2.4]heptan-5-yl)methanone], the Kb on human OX1 receptors was 6.31 nM; at human OX2 receptors, 39.8 nM.

Consider `O=C(c1ncccc1-c1ccccc1)N1CC2(CC2)C[C@H]1CNc1ccc(C(F)(F)F)cn1` [Compound E5, (S)-(3-phenylpyridin-2-yl)(6-(((5-(trifluoromethyl)-pyridin-2-yl)amino)methyl)-5-azaspiro[2.4]heptan-5-yl)methanone], for which the results for the Kb on human OX1 receptors and at human OX2 receptors were 10 nM and 50.1 nM, respectively.

As for `Cc1ccc(-c2ccc(F)cc2)c(C(=O)N2CC3(CC3)C[C@H]2CNc2ccc(C(F)(F)F)cn2)n1` [Compound 3f, (S)-(3-(4-fluorophenyl)-6-methylpyridin-2-yl)(6-(((5-(trifluoromethyl)pyridin-2-yl)amino)methyl)-5-azaspiro[2.4]heptan-5-yl)methanone], the Kb on human OX1 receptors and at human OX2 receptors was 7.94 nM in each case.

`Cc1ccc(OCc2ccccc2)c(C(=O)N2CC3(CC3)C[C@H]2CNc2ccc(C(F)(F)F)cn2)n1` [Compound 3k, (S)-(3-(benzyloxy)-6-methylpyridin-2-yl)(6-(((5-(trifluoromethyl)pyridin-2-yl)amino)methyl)-5-azaspiro[2.4]heptan-5-yl)methanone]: the Kb at human OX1 receptors and at human OX2 receptors was 2.51 nM throughout.

For the compound `O=C(c1c(F)cccc1-c1ncccn1)N1CC2(CC2)C[C@H]1CNc1cc(C(F)(F)F)ccn1` [Compound 1h, (S)-(2-fluoro-6-(pyrimidin-2-yl)phenyl)(6-(((4-(trifluoromethyl)pyridin-2-yl)amino)methyl)-5-azaspiro[2.4]heptan-5-yl)methanone], the Kb at human OX1 receptors was 39.8 nM; at human OX2 receptors it was 12.6 nM.

With `O=C(c1ncccc1-c1ccccn1)N1CC2(CC2)C[C@H]1CNc1ccc(C(F)(F)F)cn1` [Compound E7, (S)-[2,3′-bipyridin]-2′-yl(6-(((5-(trifluoromethyl)pyridin-2-yl)amino)methyl)-5-azaspiro[2.4]heptan-5-yl)methanone], the Kb at human OX1 receptors is 3.98 nM; at human OX2 receptors it was 126 nM.

For the compound `Cc1nc(C(=O)N2CC3(CC3)C[C@H]2CNc2nc3ccccc3o2)c(-c2ccccc2)s1` [Compound 2b, (S)-(6-((benzo[d]oxazol-2-ylamino)methyl)-5-azaspiro[2.4]heptan-5-yl)(2-methyl-5-phenylthiazol-4-yl)methanone], the Kb at human OX1 receptors is 0.794 nM; on human OX2 receptors, 2.51 nM.

With `Cc1ccc(-c2ccc(C)nc2C(=O)N2CC3(CC3)C[C@H]2CNc2ccc(C(F)(F)F)cn2)c(F)c1` [Compound E4, (S)-(3-(2-fluoro-4-methylphenyl)-6-methylpyridin-2-yl)(6-(((5-(trifluoromethyl)pyridin-2-yl)amino)methyl)-5-azaspiro[2.4]heptan-5-yl)methanone], the Kb on human OX1 receptors was 39.8 nM; on human OX2 receptors, 31.6 nM.

Regarding `Cc1ccc(-c2ncccn2)c(C(=O)N2CC3(CC3)C[C@H]2CNc2ccc(C(F)(F)F)cn2)c1` [Compound 1o, (S)-(5-methyl-2-(pyrimidin-2-yl)phenyl)(6-(((5-(trifluoromethyl)pyridin-2-yl)amino)methyl)-5-azaspiro[2.4]heptan-5-yl)methanone], the Kb on human OX1 receptors was 2 nM; on human OX2 receptors, 251 nM. In addition, the “pKb OX1” value at human OX1 receptors (setting [1]) turned out to be 8.7. Moreover, on human OX2 receptors (setting [1]), the “pKb OX2” value turned out to be 6.6.

As to `Cc1ccc(-c2ncccn2)c(C(=O)N2CC3(CC3)C[C@H]2CNc2ncc(C(F)(F)F)cc2F)c1` [Compound 1l, (S)-(6-(((3-fluoro-5-(trifluoromethyl)pyridin-2-yl)amino)methyl)-5-azaspiro[2.4]heptan-5-yl)(5-methyl-2-(pyrimidin-2-yl)phenyl)methanone], the Kb on human OX1 receptors is 5.01 nM; on human OX2 receptors, 25.1 nM.
